Results: US10913757B2, “Hydroxycinnamic derivatives, methods and uses thereof” (UNIVERSIDADE DO PORTO, priority 2016, dated 2021)

How the values were obtained:
[1] = system: rat liver mitochondria (RLM); assay: Mitochondrial transmembrane electric potential (ΔΨ) of RLM, safranine fluorescence; type: biochemical
Method: (§1) In an embodiment, and as an example, AntiOxCINs and MitoQ toxicity effects on the mitochondrial bioenergetics, namely on RLM ΔΨ and mitochondrial respiration parameters, were measured. The […] represents the main component of the electrochemical gradient generated by mitochondrial respiration and accounts for more than 90% of the total available energy. For mitochondrial respiration assays, glutamate/malate (for complex I) and succinate (for complex II) were used as substrates. In addition, the mitochondrial oxidative phosphorylation coupling index, known as respiratory control ratio (RCR, state 3/state 4 respiration) and ADP/O index (the coupling between ATP synthesis and oxygen consumption) were also calculated. AntiOxCINs and MitoQ were tested at antioxidant-relevant concentrations, with 10 μM being the highest concentration.
(§2) In an embodiment, the evaluation of AntiOxCINs functional mitochondrial toxicity profile was performed in rat liver mitochondria (RLM). […] The protein concentration was determined by the biuret assay using BSA as a standard.
Then, 1 μM FCCP was added at the end of all experiments to depolarize mitochondria. ΔΨ was calculated using a calibration curve obtained when RLM were incubated in a K^+-free reaction medium containing 200 mM sucrose, 1 mM NaH2PO4, 10 mM Tris (pH 7.4) and 10 μM EGTA, supplemented with 0.4 μg valinomicin. […] “Repolarization” corresponded to the recovery of membrane potential after the complete phosphorylation of ADP added. Lag phase reflected the time required to phosphorylate the added ADP. […] Data are means±SEM of five independent experiments.

[2] = Redox properties by differential pulse and cyclic voltammetry; type: physicochemical; conditions: for reversibility of the oxidation reaction: cyclic voltammetry, physiological pH; for Ep (redox potential): physiological pH (7.4), voltammetry
Method: In an embodiment, and as an example, AntiOxCINs redox properties were evaluated (Table 1). Redox potentials are correlated with the ability of an antioxidant to donate a hydrogen atom and/or an electron to a free radical.
However, for pyrogallol derivatives (AntiOxCIN4, AntiOxCIN5 and AntiOxCIN7), a significant decrease in redox potentials was observed (Ep=0.034-0.057 V) (Table 1).
The voltammograms presented a diffusion peak and an adsorption post-peak at a more anodic potential correspondent to the oxidation of dissolved and adsorbed forms of the compounds, respectively. The oxidation waves can be related to the oxidation process of the pyrogallol moiety. The cyclic voltammograms also show the presence of two overlapped anodic peaks. The anodic peaks appeared to correspond to irreversible processes as any distinct reduction wave was not seen on the cathodic sweep. The existence of the additional phenolic group in the pyrogallol systems, when compared with the catechol ones, seems to influence the stabilization of the semiquinone intermediate and in turn the oxidative mechanism.
In an embodiment, the electrochemical analytical data was obtained using a computer controlled potentiostat Autolab PGSTAT302N (Metrohm Autolab, Utrecht, Netherlands). Generally, cyclic voltammetry (CV) data was acquired at a scan rate of 50 mVs^−1. Differential pulse voltammetry (DPV) results were acquired at a step potential of 4 mV, pulse amplitude of 50 mV and scan rate of 8 mVs^−1. The electrochemical signals were monitored by the General Purpose Electrochemical System (GPES) version 4.9, software package. All electrochemical experiments were performed at room temperature in an electrochemical cell that was placed in a Faraday cage in order to minimize the contribution of background noise to the analytical signal.
In an embodiment, the process of evaluation of AntiOxCINs redox properties was conducted as follows: stock solutions of each compound (10 mM) were prepared by dissolving the appropriate amount in ethanol. The voltammetric working solutions were prepared in the electrochemical cell, at a final concentration of 0.1 mM. The […] supporting electrolyte was prepared by diluting […] to 100 mL. Voltammetric data was acquired in a three-electrode system consisting of a glassy carbon electrode (GCE, d=2 mm) as working electrode, a counter electrode of platinum wire and a saturated Ag/AgCl reference electrode. In an embodiment, the evaluation of AntiOxCINs lipophilic properties was performed as follows: the electrochemical cell was a four-electrode system with arrays of micro liquid-liquid interfaces (μlTIES) containing two Ag/AgCl reference electrodes and two counter electrodes of Pt, one in each phase. The microporous membrane was sealed with a fluorosilicone sealant (Dow Corning 730) onto a glass cylinder which was filled with 4.0 mL of the aqueous phase, where the aliquots of AntiOxCINs solutions were added. The membrane was then immersed into the organic phase contained in the cell. The organic phase reference solution (a 2 mM BTPPACI+2 mM NaCl aqueous solution) was mechanically stabilized The aqueous supporting electrolyte solution was a Tris-HCl buffer 10 mM pH 7.0.

[3] = system: rat liver mitochondria (RLM); assay: Mitochondrial respiration of isolated RLM (Clark-type oxygen electrode); type: biochemical; conditions: for effect on state 3 respiration: all tested concentrations (2.5-10 μM), FIG. 6B-H
Method: as §1, §2
In an embodiment, the evaluation of AntiOxCINs effect on mitochondrial respiration was performed as follows: the respiration of isolated RLM was evaluated polarographically with a Clark-type oxygen electrode, connected to a suitable recorder in a 1 mL thermostated water-jacketed chamber with magnetic stirring, at 37° C.^1. […] Increasing concentrations of AntiOxCINs (2.5-10 μM) were added to the reaction medium containing respiratory substrates glutamate/malate (10 mM and 5 mM respectively) or succinate (5 mM) and RLM (1 mg) and allowed to incubate for a 5 min period prior to the assay. State 2 was considered as the respiration during the 5 min incubation time with AntiOxCINs. […] State 4 was determined after ADP phosphorylation finished. Subsequent addition of oligomycin (2 μg/ml) inhibited ATP-synthase and originated the oligomycin-inhibition respiration state. Finally, 1 μM FCCP was added to induce uncoupled respiration.

## CS(=O)(=O)[O-].O=C(/C=C/c1ccc(O)c(O)c1)NCCCCCCCC[P+](c1ccccc1)(c1ccccc1)c1ccccc1 [AntiOxCIN3, (E)-(8-(3-(3,4-dihydroxyphenyl)acrylamido)octyl)triphenylphosphoniummethanesulfonate]
[1]; 2.5 μM
  initial slight hyperpolarization: 10 mV
[1]; glutamate/malate, 2.5 μM
  ADP-induced depolarization (ΔΨ in - mV): 199.4 ± 7.4 mV
  Lag Phase: 65.8 ± 6.6 s
  Maximum potential (ΔΨ in - mV): 238.0 ± 9.8 mV
  Repolarization Potential (ΔΨ in - mV): 234.8 ± 10.3 mV
[1]; glutamate/malate, 5 μM
  ADP-induced depolarization (ΔΨ in - mV): 200.7 ± 5.5 mV
  Lag Phase: 68.2 ± 9.6 s
  Maximum potential (ΔΨ in - mV): 238.9 ± 8.6 mV
  Repolarization Potential (ΔΨ in - mV): 235.0 ± 8.4 mV
[1]; glutamate/malate, 10 μM
  ADP-induced depolarization (ΔΨ in - mV): 302.5 ± 6.3 mV
  Lag Phase: 73.8 ± 12.1 s
  Maximum potential (ΔΨ in - mV): 238.0 ± 6.7 mV
  Repolarization Potential (ΔΨ in - mV): 231.5 ± 7.2 mV
[1]; succinate, 2.5 μM
  ADP-induced depolarization (ΔΨ in - mV): 171.5 ± 7.3 mV
  Lag Phase: 84.6 ± 16.7 s
  Maximum potential (ΔΨ in - mV): 191.2 ± 9.1 mV
  Repolarization Potential (ΔΨ in - mV): 186.7 ± 9.3 mV
[1]; succinate, 5 μM
  ADP-induced depolarization (ΔΨ in - mV): 174.5 ± 7.7 mV
  Lag Phase: 92.0 ± 10.3 s
  Maximum potential (ΔΨ in - mV): 193.3 ± 7.6 mV
  Repolarization Potential (ΔΨ in - mV): 190.4 ± 8.3 mV
[1]; succinate, 10 μM
  ADP-induced depolarization (ΔΨ in - mV): 172.2 ± 7.5 mV
  Lag Phase: 79.8 ± 17.6 s
  Maximum potential (ΔΨ in - mV): 189.7 ± 7.8 mV
  Repolarization Potential (ΔΨ in - mV): 184.2 ± 7.6 mV
[2]
  reversibility of the oxidation reaction: reversible reaction
[2]; listed as AntiOxClN3
  Ep (redox potential): 0.170 V
[3]
  effect on state 3 respiration: increase
[3]; glutamate/malate, 2.5 μM
  ADP/O: 2.4 ± 0.2
  RCR (respiratory control ratio, state 3/state 4): 3.8 ± 0.5
[3]; glutamate/malate, 5 μM
  ADP/O: 2.7 ± 0.2
  RCR (respiratory control ratio, state 3/state 4): 3.5 ± 0.5
[3]; glutamate/malate, 10 μM
  ADP/O: 2.4 ± 0.1
  RCR (respiratory control ratio, state 3/state 4): 3.3 ± 0.3
[3]; succinate, 2.5 μM
  ADP/O: 1.6 ± 0.1
  RCR (respiratory control ratio, state 3/state 4): 4.1 ± 0.5
[3]; succinate, 5 μM
  ADP/O: 1.8 ± 0.3
  RCR (respiratory control ratio, state 3/state 4): 4.7 ± 0.7
[3]; succinate, 10 μM
  ADP/O: 1.6 ± 0.1
  RCR (respiratory control ratio, state 3/state 4): 3.9 ± 0.6

## O=C(O)/C=C/c1ccc(O)c(O)c1 [Caffeic acid, caffeic acid, reference compound]
[2]
  reversibility of the oxidation reaction: reversible reaction
  Ep (redox potential): 0.168 V
[3]; RLM
  toxicity toward the mitochondrial bioenergetic apparatus: low toxicity

## CS(=O)(=O)[O-].O=C(/C=C/c1cc(O)c(O)c(O)c1)NCCCCCCCC[P+](c1ccccc1)(c1ccccc1)c1ccccc1 [AntiOxCIN5, (E)-(8-(3-(3,4,5-trihydroxyphenyl)acrylamido)octyl)triphenylphosphonium methanesulfonate]
[1]; 2.5 μM
  initial slight hyperpolarization: 25 mV
[1]; glutamate/malate, 2.5 μM
  ADP-induced depolarization (ΔΨ in - mV): 207.5 ± 6.1 mV
  Lag Phase: 74.4 ± 10.7 s
  Maximum potential (ΔΨ in - mV): 249.8 ± 5.4 mV
  Repolarization Potential (ΔΨ in - mV): 244.7 ± 5.9 mV
[1]; glutamate/malate, 5 μM
  ADP-induced depolarization (ΔΨ in - mV): 207.5 ± 5.6 mV
  Lag Phase: 69.8 ± 13.3 s
  Maximum potential (ΔΨ in - mV): 244.7 ± 7.0 mV
  Repolarization Potential (ΔΨ in - mV): 236.5 ± 6.8 mV
[1]; glutamate/malate, 10 μM
  ADP-induced depolarization (ΔΨ in - mV): 184.6 ± 18.7 mV
  Lag Phase: 53.2 ± 7.6 s
  Maximum potential (ΔΨ in - mV): 215.1 ± 22.3 mV
  Repolarization Potential (ΔΨ in - mV): 199.9 ± 26.0 mV
[1]; succinate, 2.5 μM
  ADP-induced depolarization (ΔΨ in - mV): 177.2 ± 7.7 mV
  Lag Phase: 80.2 ± 11.8 s
  Maximum potential (ΔΨ in - mV): 196.2 ± 8.6 mV
  Repolarization Potential (ΔΨ in - mV): 190.6 ± 7.8 mV
[1]; succinate, 5 μM
  ADP-induced depolarization (ΔΨ in - mV): 173.6 ± 6.8 mV
  Lag Phase: 67.2 ± 13.4 s
  Maximum potential (ΔΨ in - mV): 190.1 ± 6.8 mV
  Repolarization Potential (ΔΨ in - mV): 184.0 ± 7.1 mV
[1]; succinate, 10 μM
  ADP-induced depolarization (ΔΨ in - mV): 162.2 ± 7.7 mV
  Lag Phase: 58.4 ± 10.2 s
  Maximum potential (ΔΨ in - mV): 180.8 ± 4.0 mV
  Repolarization Potential (ΔΨ in - mV): 168.4 ± 9.3 mV
[2]
  reversibility of the oxidation reaction: irreversible oxidation reaction
[2]; listed as AntiOxClN5, methanesulfonate
  Ep (redox potential): 0.046 V
[3]
  effect on state 3 respiration: increase
[3]; glutamate/malate, 2.5 μM
  ADP/O: 2.4 ± 0.1
  RCR (respiratory control ratio, state 3/state 4): 3.7 ± 0.4
[3]; glutamate/malate, 5 μM
  ADP/O: 2.5 ± 0.1
  RCR (respiratory control ratio, state 3/state 4): 3.7 ± 0.4
[3]; glutamate/malate, 10 μM
  ADP/O: 2.5 ± 0.1
  RCR (respiratory control ratio, state 3/state 4): 3.2 ± 0.1
[3]; succinate, 2.5 μM
  ADP/O: 1.6 ± 0.1
  RCR (respiratory control ratio, state 3/state 4): 4.2 ± 0.4
[3]; succinate, 5 μM
  ADP/O: 1.5 ± 0.1
  RCR (respiratory control ratio, state 3/state 4): 4.4 ± 0.8
[3]; succinate, 10 μM
  ADP/O: 1.6 ± 0.1
  RCR (respiratory control ratio, state 3/state 4): 4.0 ± 0.8
